{"source": "patent US5731155A", "about": "“Compositions for inhibition of intracellular transcription factors and methods therefor” (Washington University, priority 1996, dated 1998)", "key": {"STAT3 [1]": {"molecular_target": "T1, STAT3 (Mus musculus, UniProt P42227)", "T1 construct": "Cytosolic homogenates of BaMR cells were precipitated with the biotinylated 12 amino acid peptides; endogenous in cells; host or cells: BaMR (BaF3 pre-B cells transfected with the IL-10 receptor) homogenates", "T1 sequence (P42227 whole entry)": "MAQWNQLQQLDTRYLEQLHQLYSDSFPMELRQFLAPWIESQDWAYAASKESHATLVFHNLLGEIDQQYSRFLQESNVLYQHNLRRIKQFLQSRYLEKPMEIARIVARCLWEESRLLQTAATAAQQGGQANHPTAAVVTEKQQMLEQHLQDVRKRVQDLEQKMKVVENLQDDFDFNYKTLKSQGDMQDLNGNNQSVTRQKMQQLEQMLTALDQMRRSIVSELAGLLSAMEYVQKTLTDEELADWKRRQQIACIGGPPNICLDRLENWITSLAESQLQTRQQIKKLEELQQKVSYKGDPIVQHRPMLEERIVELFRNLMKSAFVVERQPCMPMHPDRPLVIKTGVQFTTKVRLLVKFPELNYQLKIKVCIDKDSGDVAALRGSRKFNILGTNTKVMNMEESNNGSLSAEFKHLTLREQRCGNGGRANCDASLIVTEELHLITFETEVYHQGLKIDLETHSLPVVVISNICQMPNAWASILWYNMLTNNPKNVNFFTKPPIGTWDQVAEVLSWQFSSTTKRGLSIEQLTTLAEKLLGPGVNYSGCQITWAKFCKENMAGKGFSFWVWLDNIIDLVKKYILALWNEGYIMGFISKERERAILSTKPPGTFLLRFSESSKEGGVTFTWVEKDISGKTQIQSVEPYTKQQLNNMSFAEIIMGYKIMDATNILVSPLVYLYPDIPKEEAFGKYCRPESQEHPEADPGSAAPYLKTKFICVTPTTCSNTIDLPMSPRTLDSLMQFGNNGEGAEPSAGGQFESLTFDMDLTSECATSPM", "experiment": "Precipitation of STAT3 from BaMR cytosolic homogenates with biotinylated IL-10 receptor peptides", "type": "binding", "conditions": "for precipitation of / binding to the 92 kD STAT3 protein: biotinylated 12 amino acid peptides, BaMR cytosolic homogenates; for concentration of biotinylated peptide sufficient to precipitate STAT3 (comparable amounts): increasing peptide concentrations, data not shown", "description": "Aminoterminally biotinylated peptides were synthesized comprising 12 amino acids in which the peptides each contained a different region of the IL-10 receptor intracellular domain containing a tyrosine residue. These peptides corresponded to positions 370 to 381 (SEQ ID NO:26, Gln-Gln-Leu-Gly-Xaa-His-Gln-Asp-Gln-Asp-Asp-Ser), 392-403 (SEQ ID NO:27, Gly-Gln-Pro-Lys-Xaa-Thr-Gln-Asp-Ala-Ser-Asp-Leu), 423 to 434 (SEQ ID NO:24, Thr-Phe-Gln-Gly-Xaa-Gln-Lys-Gln-Thr-Arg-Trp-Lys) and 473 to 484 (SEQ ID NO:25, Leu-Ala-Ala-Gly-Xaa-Leu-Lys-Gln-Glu-Ser-Gln-Gly) in which the amino acids identified in the sequence as Xaa in positions 374, 396, 427, and 477 of the respectively peptides are phosphorylated tyrosines. In addition, the sequences 423 to 434 (SEQ ID NO:28, Thr-Phe-Gln-Gly-Tyr-Gln-Lys-Gln-Thr-Arg-Trp-Lys) and 473 to 484 (SEQ ID NO:29, Leu-Ala-Ala-Gly-Tyr-Leu-Lys-Gln-Glu-Ser-Gln-Gly) contained the non-phosphorylated tyrosines in the positions 427, and 477 of the IL-10 receptor intracellular domain. Cytosolic homogenates of BaMR cells were precipitated with the biotinylated 12 amino acid peptides. […] In contrast to this, no binding to the STAT3 transcription factor occurred with the peptides containing phosphorylated tyrosines in positions 374 (SEQ ID NO:26) and 396 (SEQ ID NO:27), the peptides containing non-phosphorylated tyrosines in positions 427 (SEQ ID NO:28) and 477 (SEQ ID NO:29) and the phosphorylated peptide corresponding to the amino acid sequences 436 to 447 of the IFNγ receptor α chain intracellular domain (FIG. 10). Whereas both the 427 and the 477 phosphopeptides precipitated the STAT3 transcription factor, none of the phosphopeptides coprecipitated STAT1."}, "STAT3 [2]": {"molecular_target": "T1, STAT3", "experiment": "Inhibition of IL-10 dependent STAT3 phosphorylation in BaMR cell homogenates", "type": "biochemical", "conditions": "for effect on IL-10 dependent phosphorylation of STAT3: peptide 100 μM, 45 minutes at 4° C., then 100 ng/ml IL-10", "protocol": "BaMR cell homogenates were prepared in a Dounce homogenizer and 18 μg of total protein was incubated without or with IL-10 at a concentration of 100 ng/ml for 15 minutes at 37° C. (FIG. 11, lanes 1 and 2). In lanes 3-8, 18 μg total protein of the BaMR homogenates was incubated for 45 minutes at 4° C. with a 100 μM concentration of the IL-10-receptor peptides having phosphorylated tyrosines at positions 374 (SEQ ID NO:26), 396 (SEQ ID NO:27), 427(SEQ ID NO:24), and 477(SEQ ID NO:25) (lanes 3-6) or 100 μM concentration of the non phosphorylated peptides having tyrosines at positions 427 (SEQ ID NO:28) and 477 (SEQ ID NO:29). Reaction mixtures were stimulated with 100 ng/ml IL-10 as described above and homogenates were precipitated with STAT3 or STAT1 specific antisera. Precipitates were blotted with phosphotyrosine specific antibody RC-20 and reactions developed using the ECL-system. Blots were stripped and reblotted with STAT3 and STAT1 specific antisera, respectively."}, "IFNγ receptor α chain": {"system": "IFNγ receptor α chain", "experiment": "IFNγ dependent tyrosine phosphorylation of the IFNγ receptor α chain in Colo-205 cells (4G10 western blot)", "type": "cell-based, human", "conditions": "Colo-205 treated for 5 minutes", "description": "For these experiments, Colo-205, a human adenocarcinoma cell line obtained from the ATCC, was used because it was known to express a high number of IFNγ receptors (10,000 receptors/cell) and has been well characterized with regard to both biologic responsiveness to IFNγ and IFNγ receptor […] phosphorylation (Hershey and Schreiber, 1989; Hershey et al., 1990 both of which are incorporated by reference). Colo-205 cells (5-10×10^7) were resuspended in one ml of PBS-10% FCS and were then incubated at 37° C., either in the presence or absence of rHuIFNγ (10,000 IRU). Purified recombinant human IFNγ was provided by Dr. Susan Kramer of Genentech, Inc. (South San Francisco, Calif.). […] Purified rHuIFNγ was radioiodinated, using Bolton Hunter reagent (ICN Chemicals, Radioisotope Division, Irvine, Calif.) to specific activities of 6.5-17.8 μCi/μg as described in Celada et al. (J Clin Invest 76:2196-2205, 1985 which is incorporated by reference). The reaction was stopped by adding 4 mls of ice-cold PBS. Cells were pelleted, washed once in ice-cold PBS, and then lysed in one ml of lysis buffer (25 mM Tris-HCl (pH 8.0), 1% NP-40, 150 mM NaCl, 1 mM sodium orthovanadate, 10 mM NaF, 1 mM PMSF, 5mM iodoacetamide, […] leupeptin and aprotinin). Solubilized cells were centrifuged at 15,000×g to remove cell nuclei and the supernatants were then incubated with 10 μg of GIR-94 for 30 minutes at 4° C. Protein G sepharose was added to the reaction mixture and the incubation continued for an additional 30 minutes. […]\nTo determine the amount of receptor precipitated at each time point, aliquots from each immunoprecipitate were subjected to western blot analysis using a monoclonal antibody (GIR-94, a murine antibody IgG2b) that is specific for the human IFNγ receptor extracellular domain. In the absence of added IFNγ, no tyrosine phosphorylated receptor was detected (FIG. 1, lane 1). […]"}}, "note": "“Also recorded” adds a separate entry of the source. Where a SMILES comes first, the peptide text is derived from it. [ ]: non-standard residue; d: D form. The star is where a group is joined. Biotin = O=C1N[C@H]2[C@H](CS[C@H]2CCCCC(=O)*)N1; pY = N[C@@H](Cc1ccc(OP(=O)(O)O)cc1)C(=O)O; Ahx = NCCCCCC(=O)O", "data": [{"compound": "CC(C)C[C@H](NC(=O)[C@@H](NC(=O)[C@H](Cc1c[nH]cn1)NC(=O)[C@@H]1CCCN1C(=O)[C@H](CCCCN)NC(=O)[C@H](CC(=O)O)NC(=O)[C@H](Cc1ccc(OP(=O)(O)O)cc1)NC(=O)CNC(=O)[C@H](Cc1ccccc1)NC(=O)[C@H](CO)NC(=O)[C@@H](NC(=O)CCCCCNC(=O)CCCC[C@@H]1SC[C@@H]2NC(=O)N[C@@H]21)[C@@H](C)O)C(C)C)C(=O)N[C@H](C(=O)O)C(C)C", "note": "[SEQ ID NO:4, Biotin-TSFGY-PO4 DKPHVLV] ({Biotin-Ahx}-TSFG[pY]DKPHVLV-OH)", "values": [{"measurement": "precipitation of / binding to the 92 kD STAT3 protein", "setting": "STAT3 [1]", "value": "no binding"}]}, {"compound": "CC(C)C[C@H](NC(=O)[C@H](CCC(N)=O)NC(=O)[C@H](CCC(N)=O)NC(=O)CCCCCNC(=O)CCCC[C@@H]1SC[C@@H]2NC(=O)N[C@@H]21)C(=O)NCC(=O)N[C@@H](Cc1ccc(OP(=O)(O)O)cc1)C(=O)N[C@@H](Cc1c[nH]cn1)C(=O)N[C@@H](CCC(N)=O)C(=O)N[C@@H](CC(=O)O)C(=O)N[C@@H](CCC(N)=O)C(=O)N[C@@H](CC(=O)O)C(=O)N[C@@H](CC(=O)O)C(=O)N[C@@H](CO)C(=O)O", "note": "[SEQ ID NO:26, Gln-Gln-Leu-Gly-Xaa-His-Gln-Asp-Gln-Asp-Asp-Ser] ({Biotin-Ahx}-QQLG[pY]HQDQDDS-OH)", "values": [{"measurement": "precipitation of / binding to the 92 kD STAT3 protein", "setting": "STAT3 [1]", "value": "no binding"}]}, {"compound": "CC(C)C[C@H](NC(=O)[C@H](CC(=O)O)NC(=O)[C@H](CO)NC(=O)[C@H](C)NC(=O)[C@H](CC(=O)O)NC(=O)[C@H](CCC(N)=O)NC(=O)[C@@H](NC(=O)[C@H](Cc1ccc(OP(=O)(O)O)cc1)NC(=O)[C@H](CCCCN)NC(=O)[C@@H]1CCCN1C(=O)[C@H](CCC(N)=O)NC(=O)CNC(=O)CCCCCNC(=O)CCCC[C@@H]1SC[C@@H]2NC(=O)N[C@@H]21)[C@@H](C)O)C(=O)O", "note": "[SEQ ID NO:27, Gly-Gln-Pro-Lys-Xaa-Thr-Gln-Asp-Ala-Ser-Asp-Leu] ({Biotin-Ahx}-GQPK[pY]TQDASDL-OH)", "values": [{"measurement": "precipitation of / binding to the 92 kD STAT3 protein", "setting": "STAT3 [1]", "value": "no binding"}]}, {"compound": "C[C@@H](O)[C@H](NC(=O)CCCCCNC(=O)CCCC[C@@H]1SC[C@@H]2NC(=O)N[C@@H]21)C(=O)N[C@@H](Cc1ccccc1)C(=O)N[C@@H](CCC(N)=O)C(=O)NCC(=O)N[C@@H](Cc1ccc(O)cc1)C(=O)N[C@@H](CCC(N)=O)C(=O)N[C@@H](CCCCN)C(=O)N[C@@H](CCC(N)=O)C(=O)N[C@H](C(=O)N[C@@H](CCCNC(=N)N)C(=O)N[C@@H](Cc1c[nH]c2ccccc12)C(=O)N[C@@H](CCCCN)C(=O)O)[C@@H](C)O", "note": "[SEQ ID NO:28, Thr-Phe-Gln-Gly-Tyr-Gln-Lys-Gln-Thr-Arg-Trp-Lys] ({Biotin-Ahx}-TFQGYQKQTRWK-OH)", "values": [{"measurement": "precipitation of / binding to the 92 kD STAT3 protein", "setting": "STAT3 [1]", "value": "no binding"}]}, {"compound": "CC(C)C[C@H](NC(=O)CCCCCNC(=O)CCCC[C@@H]1SC[C@@H]2NC(=O)N[C@@H]21)C(=O)N[C@@H](C)C(=O)N[C@@H](C)C(=O)NCC(=O)N[C@@H](Cc1ccc(O)cc1)C(=O)N[C@@H](CC(C)C)C(=O)N[C@@H](CCCCN)C(=O)N[C@@H](CCC(N)=O)C(=O)N[C@@H](CCC(=O)O)C(=O)N[C@@H](CO)C(=O)N[C@@H](CCC(N)=O)C(=O)NCC(=O)O", "note": "[SEQ ID NO:29, Leu-Ala-Ala-Gly-Tyr-Leu-Lys-Gln-Glu-Ser-Gln-Gly] ({Biotin-Ahx}-LAAGYLKQESQG-OH)", "values": [{"measurement": "precipitation of / binding to the 92 kD STAT3 protein", "setting": "STAT3 [1]", "value": "no binding"}]}, {"compound": "Leu-Ala-Ala-Gly-Xaa-Leu-Lys-Gln-Glu-Ser-Gln-Gly [SEQ ID NO:25]", "values": [{"measurement": "precipitation of / binding to the 92 kD STAT3 protein", "setting": "STAT3 [1]", "value": "specifically precipitated; also recorded: coprecipitated"}, {"measurement": "concentration of biotinylated peptide sufficient to precipitate STAT3 (comparable amounts)", "setting": "STAT3 [1]", "value": "4 to 20", "unit": "µM"}, {"measurement": "effect on IL-10 dependent phosphorylation of STAT3", "setting": "STAT3 [2]", "value": "specifically inhibited"}]}, {"compound": "Thr-Phe-Gln-Gly-Xaa-Gln-Lys-Gln-Thr-Arg-Trp-Lys [SEQ ID NO:24]", "values": [{"measurement": "precipitation of / binding to the 92 kD STAT3 protein", "setting": "STAT3 [1]", "value": "specifically precipitated; also recorded: coprecipitated"}, {"measurement": "concentration of biotinylated peptide sufficient to precipitate STAT3 (comparable amounts)", "setting": "STAT3 [1]", "value": 0.8, "unit": "µM"}, {"measurement": "potency in inhibiting STAT3 phosphorylation relative to SEQ ID NO:25", "setting": "STAT3 [2]; concentration-dependent inhibition, FIG. 12", "value": "5 to 10", "unit": "fold"}, {"measurement": "effect on IL-10 dependent phosphorylation of STAT3", "setting": "STAT3 [2]", "value": "specifically inhibited"}]}, {"compound": "rHuIFNγ: Purified recombinant human IFNγ provided by Genentech, Inc.", "values": [{"measurement": "IFNγ dose at which IFNγ receptor tyrosine phosphorylation reached maximal levels", "setting": "IFNγ receptor α chain", "value": "10,000 IRU/ml"}, {"measurement": "IFNγ dose at which IFNγ receptor tyrosine phosphorylation was detected", "setting": "IFNγ receptor α chain", "value": 100, "unit": "IRU/ml"}]}]}
